Results: publication PMC7583830 (Molecules, 2020)
Where a SMILES comes first, the peptide text is derived from it. [ ]: non-standard residue; d: D form. The star is where a group is joined. DOTA = O=C(O)CN1CCN(CC(=O)O)CCN(CC(=O)*)CCN(CC(=O)O)CC1; 1Nal = N[C@@H](Cc1cccc2ccccc12)C(=O)O; NMeNle = CCCC[C@H](NC)C(=O)O

test system: not listed separately; assay: Distribution coefficient (logD) in octanol/PBS; type: physicochemical; settings: pH 7.4
Experimental: The mixture was vigorously vortexed at room temperature over a period of 15 min using a small shaker (MS3 Basic, IKA, Staufen, Germany) with speed of 1500 rpm.

logD	Compound
-4.19 ± 0.3	O=C(O)CC[C@@H](NC(=O)CN1CCN(CC(=O)O)CCN(CC(=O)O)CCN(CC(=O)O)CC1)C(=O)N1CCC[C@H]1C(=O)N[C@@H](Cc1ccc(O)cc1)C(=O)NCC(=O)N[C@@H](Cc1c[nH]c2ccccc12)C(=O)O [[^177Lu]Lu-M4, metal not drawn] ({DOTA}-[dE]PYGW-OH; C-terminus assumed)

test system: not listed separately; assay: Metabolic stability in vivo and radiometabolites (radio-HPLC of blood, urine, liver, kidney); parameters: species or system BALB/c mice; settings: mouse, in vivo
Experimental: Metabolic biodistribution studies were performed in accordance with the ethical standards of the institution and approved by the Austrian Ministry of Science (BMWFW-66.011/0072-V/3b/2019). These studies were carried out in 5- to 7-week-old female BALB/c mice (n = 3) injected with [^177Lu]Lu-1 via a lateral tail vein. To allow monitoring of the metabolites by radio-HPLC, mice were injected with 30 MBq corresponding to 0.8 nmol total peptide. The mice were euthanized by cervical dislocation after different time points of 10 min, 30 min and 1 h p.i. and the urine and a venous blood sample were collected at the time of sacrifice. Liver and kidneys were dissected and homogenized in 20 mM HEPES buffer pH 7.3 at a ratio of 1:1 (v/v) with an Ultra-Turrax T8 homogenizer (IKA-Werke, Staufen, Germany) for 1 min at RT. Before radio-HPLC analysis, the samples (except urine) were treated with ACN at a ratio of 1:1 (v/v) to precipitate proteins, centrifuged at 2000× g for 2 min and diluted with water at a ratio of 1:1 (v/v). For HPLC analysis of the samples, the analytical HPLC system described above with a flow rate of 1 mL/min was used together with the following optimized water/ACN/0.1% TFA gradient to allow a better separation of [^177Lu]Lu-1 and the different radiometabolites: 0–7 min 1–7% ACN, 7–8 min 7–10% ACN, 8–18 min 10–18% ACN, 18–20 min 18–32% ACN, 20–27 min 32% ACN, 27–37 min […], 37–40 min 80% ACN, 40–40.1 min 80–1% ACN, 40.1–45 min 1% ACN. Urine was measured with the low-sensitivity loop of the radiodetector. The remaining samples were analyzed with the high-sensitivity loop due to the lower radioactivity present in blood, liver and kidney homogenate. To quantify the percentage of intact [^177Lu]Lu-1 and [^177Lu]Lu-M1 showing some overlap in the radiochromatogram when using the high-sensitivity loop of the radiodetector, the two radiopeptides were co-injected at different known ratios to enable a more accurate separation and integration of the two peaks (see supporting Figure S4). Mice from the metabolic biodistribution studies were subjected to a further dissection of all remaining tissues (blood, lung, heart, femur, spleen, muscle, intestine, pancreas and stomach). All organs, also including liver and kidneys, were weighed, and their radioactivity was measured in the gamma counter together with a standard and the residual body. To quantify the uptake of radioactivity in liver and kidneys, a part of liver and kidney homogenate was measured in the gamma counter to extrapolate the radioactivity for the whole organ.

amount of radiometabolite	Compound
~ 20%	O=C(O)CC[C@@H](NC(=O)CN1CCN(CC(=O)O)CCN(CC(=O)O)CCN(CC(=O)O)CC1)C(=O)N1CCC[C@H]1C(=O)N[C@@H](Cc1ccc(O)cc1)C(=O)O [[^177Lu]Lu-M6, metal not drawn] ({DOTA}-[dE]-Pro-Tyr-OH; C-terminus assumed)
< 3%	O=C(O)CC[C@@H](NC(=O)CN1CCN(CC(=O)O)CCN(CC(=O)O)CCN(CC(=O)O)CC1)C(=O)N1CCC[C@H]1C(=O)N[C@@H](Cc1ccc(O)cc1)C(=O)NCC(=O)N[C@@H](Cc1c[nH]c2ccccc12)C(=O)O [[^177Lu]Lu-M4, metal not drawn] ({DOTA}-[dE]PYGW-OH; C-terminus assumed)
< 10%	O=C(O)CC[C@@H](NC(=O)CN1CCN(CC(=O)O)CCN(CC(=O)O)CCN(CC(=O)O)CC1)C(=O)N1CCC[C@H]1C(=O)N[C@@H](Cc1ccc(O)cc1)C(=O)NCC(=O)O [[^177Lu]Lu-M5, metal not drawn] ({DOTA}-[dE]PYG-OH; C-terminus assumed)

biological target: T1, human CCK2R (Homo sapiens, UniProt P32239); assay: Competition assay against [125I][3-iodo-Tyr12,Leu15]gastrin-I on A431-CCK2R cells; type: binding; settings: non-labeled peptide, displacement of [125I][3-iodo-Tyr12,Leu15]gastrin-I, 1 h RT
T1 construct: expressed in transfected cells; host or cells: A431 human epidermoid carcinoma cells, stably transfected (plasmid pCR3.1); provided by Dr. Luigi Aloj
T1 sequence (P32239 1-447): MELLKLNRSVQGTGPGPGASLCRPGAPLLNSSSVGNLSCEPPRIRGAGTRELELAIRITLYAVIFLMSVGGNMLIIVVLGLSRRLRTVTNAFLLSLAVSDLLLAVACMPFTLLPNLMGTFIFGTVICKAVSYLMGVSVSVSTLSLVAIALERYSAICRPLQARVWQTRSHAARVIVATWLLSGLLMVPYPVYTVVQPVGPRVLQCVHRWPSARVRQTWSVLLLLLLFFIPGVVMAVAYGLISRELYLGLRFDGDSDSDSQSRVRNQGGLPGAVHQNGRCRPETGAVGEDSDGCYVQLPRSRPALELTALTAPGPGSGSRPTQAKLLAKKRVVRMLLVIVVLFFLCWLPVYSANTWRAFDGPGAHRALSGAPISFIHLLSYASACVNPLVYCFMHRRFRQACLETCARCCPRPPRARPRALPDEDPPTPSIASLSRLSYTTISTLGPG
Experimental: [^125I][3-iodo-Tyr^12,Leu^15]gastrin-I at high molar activity was obtained by HPLC purification and stored in aliquots at −25 °C. Binding assays were carried out using 96-well filter plates (MultiScreenHTS-FB, Merck Group, Darmstadt, Germany) pre-treated with 10 mM TRIS/139 mM NaCl pH 7.4 (2 × 250 µL). For the assay, 200,000–400,000 A431-CCK2R cells per well were prepared in 20 mM HEPES buffer pH 7.4 containing 10 mM MgCl2, 14 µM bacitracin and 0.5% BSA. The cells (n = 3) were incubated with increasing concentrations of the peptide conjugates (0.0003–30,000 nM) and [^125I][3-iodo-Tyr^12,Leu^15]gastrin-I (50,000 cpm) for 1 h at RT. Incubation was interrupted by filtration of the medium and rapid rinsing with ice-cold 10 mM TRIS/139 mM NaCl pH 7.4 (2 × 200 µL) and the filters were measured in the gamma-counter. Half maximal inhibitory concentration (IC50) values were calculated following nonlinear regression with Origin software (Microcal Origin 6.1, Northampton, MA, USA).

IC50	Compound
> 1000 nM	CCCC[C@@H](C(=O)O)N(C)C(=O)[C@H](Cc1c[nH]c2ccccc12)NC(=O)CNC(=O)[C@H](Cc1ccc(O)cc1)NC(=O)[C@@H]1CCCN1C(=O)[C@@H](CCC(=O)O)NC(=O)CN1CCN(CC(=O)O)CCN(CC(=O)O)CCN(CC(=O)O)CC1 [M3, DOTA-DGlu-Pro-Tyr-Gly-Trp-(N-Me)Nle] ({DOTA}-[dE]PYGW[NMeNle]-OH; C-terminus assumed)
> 1000 nM	O=C(O)CC[C@@H](NC(=O)CN1CCN(CC(=O)O)CCN(CC(=O)O)CCN(CC(=O)O)CC1)C(=O)N1CCC[C@H]1C(=O)N[C@@H](Cc1ccc(O)cc1)C(=O)NCC(=O)N[C@@H](Cc1c[nH]c2ccccc12)C(=O)O [M4, DOTA-DGlu-Pro-Tyr-Gly-Trp] ({DOTA}-[dE]PYGW-OH; C-terminus assumed)
> 1000 nM	CCCC[C@@H](C(=O)N[C@@H](CC(=O)O)C(=O)N[C@@H](Cc1cccc2ccccc12)C(=O)O)N(C)C(=O)[C@H](Cc1c[nH]c2ccccc12)NC(=O)CNC(=O)[C@H](Cc1ccc(O)cc1)NC(=O)[C@@H]1CCCN1C(=O)[C@@H](CCC(=O)O)NC(=O)CN1CCN(CC(=O)O)CCN(CC(=O)O)CCN(CC(=O)O)CC1 [M1, DOTA-DGlu-Pro-Tyr-Gly-Trp-(N-Me)Nle-Asp-1Nal-COOH] ({DOTA}-[dE]PYGW[NMeNle]D[1Nal]-OH)
> 1000 nM	CCCC[C@@H](C(=O)N[C@@H](CC(=O)O)C(=O)O)N(C)C(=O)[C@H](Cc1c[nH]c2ccccc12)NC(=O)CNC(=O)[C@H](Cc1ccc(O)cc1)NC(=O)[C@@H]1CCCN1C(=O)[C@@H](CCC(=O)O)NC(=O)CN1CCN(CC(=O)O)CCN(CC(=O)O)CCN(CC(=O)O)CC1 [M2, DOTA-DGlu-Pro-Tyr-Gly-Trp-(N-Me)Nle-Asp] ({DOTA}-[dE]PYGW[NMeNle]D-OH; C-terminus assumed)
0.69 ± 0.09 nM	CCCC[C@@H](C(=O)N[C@@H](CC(=O)O)C(=O)N[C@@H](Cc1cccc2ccccc12)C(N)=O)N(C)C(=O)[C@H](Cc1c[nH]c2ccccc12)NC(=O)CNC(=O)[C@H](Cc1ccc(O)cc1)NC(=O)[C@@H]1CCCN1C(=O)[C@@H](CCC(=O)O)NC(=O)CN1CCN(CC(=O)O)CCN(CC(=O)O)CCN(CC(=O)O)CC1 [compound 1, DOTA-DGlu-Pro-Tyr-Gly-Trp-(N-Me)Nle-Asp-1Nal-NH2] ({DOTA}-[dE]PYGW[NMeNle]D[1Nal]-NH2)
